Test results published in ChEMBL document CHEMBL5325450, “Bisabolane-Type Sesquiterpenoids with a Tetrahydrofuran or Tetrahydropyran Ring from Vernonia solanifolia” (J Nat Prod, 2023).
The source made the active and inactive calls. The rule behind the calls is not given here.

How the values were obtained:
THP-1 = assay: Anti-inflammatory activity against LPS-induced human THP-1 cells assessed as reduction in iNOS protein expression by Western blot analysis; format: functional, cell-based; settings: dose 20-80 µM
[1] = target: T1, Nuclear factor NF-kappa-B complex (Homo sapiens) (UniProt Q00653+P19838+Q04206); assay: Inhibition of NFkappaB signaling pathway in LPS-induced human THP-1 cells assessed as reduction in IkappaBalpha phosphorylation by Western blot analysis; format: cell-based
[2] = target: T1, Nuclear factor NF-kappa-B complex (Homo sapiens); assay: Inhibition of NFkappaB signaling pathway in LPS-induced human THP-1 cells assessed as reduction in p65 phosphorylation by Western blot analysis; format: cell-based
[3] = target: T1, Nuclear factor NF-kappa-B complex (Homo sapiens); assay: Inhibition of NFkappaB signaling pathway in LPS-induced human THP-1 cells assessed as reduction in IKKalpha/beta phosphorylation by Western blot analysis; format: cell-based
RAW264.7 [4] = assay: Anti-inflammatory activity against mouse RAW264.7 cells assessed as reduction in LPS-induced NO production pre-incubated for 1 hr followed by compound addition and measured after 18 hrs by Griess reagent based analysis; format: functional, cell-based; settings: dose 5-80 µM, time 19.0 hrs
RAW264.7 [5] = assay: Cytotoxicity against mouse RAW264.7 cells assessed as reduction in cell viability upto 80 uM measured after 24 hrs by MTT assay; format: toxicity, cell-based; settings: raw264.7, 24 h
RAW264.7 [6] = assay: Anti-inflammatory activity against mouse RAW264.7 cells assessed as inhibition of LPS-induced NO production at 80 uM pre-incubated for 1 hr followed by compound addition and measured after 18 hrs by Griess reagent based analysis; format: functional, cell-based; settings: time 19.0 hrs

T1 sequence (P19838 whole entry, looked up): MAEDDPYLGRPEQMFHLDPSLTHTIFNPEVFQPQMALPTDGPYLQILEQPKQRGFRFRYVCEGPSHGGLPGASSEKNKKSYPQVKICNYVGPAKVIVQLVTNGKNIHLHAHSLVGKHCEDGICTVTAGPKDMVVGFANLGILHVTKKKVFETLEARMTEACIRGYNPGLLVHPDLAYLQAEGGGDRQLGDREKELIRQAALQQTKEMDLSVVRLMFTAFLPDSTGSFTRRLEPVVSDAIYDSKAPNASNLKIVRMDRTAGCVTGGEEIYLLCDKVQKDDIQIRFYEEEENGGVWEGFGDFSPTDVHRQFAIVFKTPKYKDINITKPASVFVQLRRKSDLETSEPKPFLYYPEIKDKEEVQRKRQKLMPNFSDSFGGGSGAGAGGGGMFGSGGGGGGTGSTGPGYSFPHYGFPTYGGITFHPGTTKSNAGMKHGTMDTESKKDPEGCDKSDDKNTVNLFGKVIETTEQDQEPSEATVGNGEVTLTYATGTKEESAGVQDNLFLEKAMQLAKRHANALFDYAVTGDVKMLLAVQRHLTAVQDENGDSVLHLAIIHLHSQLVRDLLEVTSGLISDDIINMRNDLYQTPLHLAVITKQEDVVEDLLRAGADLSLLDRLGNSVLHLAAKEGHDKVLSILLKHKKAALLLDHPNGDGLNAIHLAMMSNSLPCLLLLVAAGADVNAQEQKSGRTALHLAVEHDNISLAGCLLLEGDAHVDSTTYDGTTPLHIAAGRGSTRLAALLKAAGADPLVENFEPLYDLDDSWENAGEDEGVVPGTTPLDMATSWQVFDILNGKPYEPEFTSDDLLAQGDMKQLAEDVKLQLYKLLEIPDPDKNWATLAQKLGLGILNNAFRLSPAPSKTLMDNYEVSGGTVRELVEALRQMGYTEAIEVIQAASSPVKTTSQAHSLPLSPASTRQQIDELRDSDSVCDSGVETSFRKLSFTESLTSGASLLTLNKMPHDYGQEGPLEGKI
T1 sequence (Q00653 whole entry, looked up): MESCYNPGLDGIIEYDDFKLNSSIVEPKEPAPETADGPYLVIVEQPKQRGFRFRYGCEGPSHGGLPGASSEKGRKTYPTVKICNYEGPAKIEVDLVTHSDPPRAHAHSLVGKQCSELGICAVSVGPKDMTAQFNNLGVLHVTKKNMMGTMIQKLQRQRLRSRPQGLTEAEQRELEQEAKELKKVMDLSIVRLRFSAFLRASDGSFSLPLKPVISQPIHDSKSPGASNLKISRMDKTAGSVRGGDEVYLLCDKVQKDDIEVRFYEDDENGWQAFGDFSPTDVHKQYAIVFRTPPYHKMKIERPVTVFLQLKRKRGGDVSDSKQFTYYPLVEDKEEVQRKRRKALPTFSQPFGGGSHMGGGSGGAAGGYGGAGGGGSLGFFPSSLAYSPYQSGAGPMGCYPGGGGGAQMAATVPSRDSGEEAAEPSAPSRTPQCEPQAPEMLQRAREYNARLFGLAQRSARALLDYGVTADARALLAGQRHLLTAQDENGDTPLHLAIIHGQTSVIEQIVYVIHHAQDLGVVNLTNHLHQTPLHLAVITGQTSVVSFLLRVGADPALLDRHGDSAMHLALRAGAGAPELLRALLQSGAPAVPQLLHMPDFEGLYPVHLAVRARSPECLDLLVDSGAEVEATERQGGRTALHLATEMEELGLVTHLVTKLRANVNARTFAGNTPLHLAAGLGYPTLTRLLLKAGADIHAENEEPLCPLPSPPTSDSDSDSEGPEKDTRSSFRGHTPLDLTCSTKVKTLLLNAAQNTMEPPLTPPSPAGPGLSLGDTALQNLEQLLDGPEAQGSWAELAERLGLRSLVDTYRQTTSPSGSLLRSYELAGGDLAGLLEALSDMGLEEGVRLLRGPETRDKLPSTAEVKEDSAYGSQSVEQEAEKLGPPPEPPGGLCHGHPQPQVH
T1 sequence (Q04206 whole entry, looked up): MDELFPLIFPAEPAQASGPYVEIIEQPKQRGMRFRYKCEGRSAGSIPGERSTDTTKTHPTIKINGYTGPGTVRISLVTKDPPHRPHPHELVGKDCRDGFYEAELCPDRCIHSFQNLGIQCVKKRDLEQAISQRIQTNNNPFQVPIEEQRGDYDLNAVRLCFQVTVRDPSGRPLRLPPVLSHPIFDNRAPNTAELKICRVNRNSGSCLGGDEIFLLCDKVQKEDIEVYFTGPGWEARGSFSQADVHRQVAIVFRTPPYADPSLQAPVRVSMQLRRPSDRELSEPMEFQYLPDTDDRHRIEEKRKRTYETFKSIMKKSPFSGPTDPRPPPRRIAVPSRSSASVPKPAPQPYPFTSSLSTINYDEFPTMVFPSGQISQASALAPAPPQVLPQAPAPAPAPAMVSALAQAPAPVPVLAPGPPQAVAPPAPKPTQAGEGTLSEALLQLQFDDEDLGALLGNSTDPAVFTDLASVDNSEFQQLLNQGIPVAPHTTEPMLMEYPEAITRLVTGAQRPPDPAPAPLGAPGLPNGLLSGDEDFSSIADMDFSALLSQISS

inhibition [1]: Active
inhibition [2]: Active
inhibition [3]: Active
SMILES: C[C@](O)(CO)[C@@H]1CC[C@@](C)([C@@H]2CC=C(C(=O)O)CC2)O1
Activity (THP-1): Dose-Dependent Effect
Activity (RAW264.7 [4]): Dose-Dependent Effect
Activity (RAW264.7 [5]): Non-Toxic
Activity (RAW264.7 [6]): Active
